15 compounds from US20080269298A1, “Benzimidazol-1-YL-thiophene compounds for the treatment of cancer” (priority 2002, published 2008) can be followed below.

Molecules are shown by their SMILES.

In assay [1] the test system is breast tumor (MCF7) cell line. Put plainly: Methylene Blue Growth Inhibition Assay, MCF7. In kind it is cell-based. The conditions noted are these: Homo sapiens, 72 h; Cell Line MCF7, 3 days; read-out: MeB IC50. In outline: (§1)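 Growth inhibition is measured as methylene blue-stained biomass (OD 620 nm) after 3 days of compound treatment, relative to vehicle controls. Cells grow in high-glucose DMEM with 10% FBS and 0.3% final DMSO; IC50 comes from nonlinear regression.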

The subject of assay [2] is lung (H460) tumor cell line. The assay can be described thus: Methylene Blue Growth Inhibition Assay, H460. In kind it is cell-based. To be noted: Homo sapiens, NCI-H460, 72 h; Cell Line H460, 3 days; read-out: MeB IC50. In a few lines: (§2)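 Methylene blue dye retained by cells after a 3-day, 37° C compound incubation in DMEM/10% FBS (0.3% DMSO) served as the biomass readout at 620 nm. IC50 values were interpolated by nonlinear regression against vehicle wells.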

The subject of assay [3] is Normal Human foreskin fibroblasts (HFF). Put plainly: Methylene Blue Growth Inhibition Assay, HFF. The class given is cell-based. To be noted: 72 h, Cell Line HFF, 3 days, read-out: MeB IC50. In outline: as §2
The subject of assay [4] is colon (HCT116) tumor cell line. The assay can be described thus: Methylene Blue Growth Inhibition Assay, HCT116. In kind it is cell-based. The conditions noted are these: Homo sapiens, HCT-116, 72 h; Cell Line HCT116, 3 days; read-out: MeB IC50. In outline:
as §1

Assay [5] relates to colon (RKO) tumor cell line. The assay can be described thus: Methylene Blue Growth Inhibition Assay, RKO. The class given is cell-based. The conditions noted are these: Homo sapiens, 72 h, 3 days, read-out: MeB IC50. In outline: as §2
Assay [6] concerns the target T1, PLK1 kinase domain (Homo sapiens, UniProt P53350).
T1 construct: made in house; host or cells: baculovirus-infected T. ni insect cells
The assay can be described thus: Assay for Inhibition of PLK1 (SPA enzyme activity). The conditions noted are these: 2 μM ATP, read-out: Ave pIC50 PLK Enzyme Inhibition (converted). The class given is biochemical.

In assay [7] the test system is prostate (PC3) tumor cell line. The assay can be described thus: Methylene Blue Growth Inhibition Assay, PC3. The class given is cell-based. The conditions noted are these: Homo sapiens, 72 h; Cell Line PC3, 3 days; read-out: MeB IC50. In a few lines:
as §1

T1 sequence (P53350 21-346): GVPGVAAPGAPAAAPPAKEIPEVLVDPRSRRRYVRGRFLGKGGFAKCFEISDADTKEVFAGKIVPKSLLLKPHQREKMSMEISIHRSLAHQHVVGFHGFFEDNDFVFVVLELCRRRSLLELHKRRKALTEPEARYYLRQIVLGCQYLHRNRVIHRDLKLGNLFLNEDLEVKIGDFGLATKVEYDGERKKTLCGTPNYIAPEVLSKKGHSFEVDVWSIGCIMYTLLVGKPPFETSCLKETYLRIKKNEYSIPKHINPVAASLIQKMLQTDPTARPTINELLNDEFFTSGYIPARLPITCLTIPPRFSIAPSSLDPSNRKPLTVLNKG

As for `COC(=O)c1sc(-n2cnc3cc(OC)c(OC)cc32)cc1OS(=O)(=O)c1ccccc1[N+](=O)[O-]` [Example 149], the IC50 in assay [1] was greater than 10 µM; in assay [2], 1 to 10 µM; in assay [3] it was greater than 10 µM; in assay [4] it was 1 to 10 µM; in assay [5], greater than 10 µM; in assay [6], less than 0.1 µM. The IC50 in assay [7] was greater than 10 µM.

`COc1cc2ncn(-c3cc(OCc4ccnc(N)c4)c(C(N)=O)s3)c2cc1OC` [Example 100, 3-[(2-Aminopyridin-4-yl)methoxy]-5-(5,6-dimethoxy-1H-benzimidazol-1-yl)thiophene-2-carboxamide]: the IC50 was greater than 10 µM in assay [1]; greater than 10 µM in assay [2]; greater than 10 µM in assay [3]; greater than 10 µM in assay [4]; greater than 10 µM in assay [5]; less than 0.1 µM in assay [6]. For the same compound, the IC50 in assay [7] was greater than 10 µM.

`COc1cc2ncn(-c3cc(OCc4ccccc4[S+](C)[O-])c(C(N)=O)s3)c2cc1OC` (stereo not drawn) [Example 98, 5-(5,6-Dimethoxy-1H-benzimidazol-1-yl)-3-{[2-(methylsulfinyl)benzyl]oxy}thiophene-2-carboxamide]: the IC50 is 1 to 10 µM in assay [1]; 1 to 10 µM in assay [2]; greater than 10 µM in assay [3]; 1 to 10 µM in assay [4]; 1 to 10 µM in assay [5]; 0.1 to 10 µM in assay [6]. For the same compound, in assay [7], the IC50 lay within 1 to 10 µM.

As for `NC(=O)c1sc(-n2cnc3ccccc32)cc1NS(=O)(=O)c1ccccc1` [Example 132, 5-(1H-Benzimidazol-1-yl)-3-[(phenylsulfonyl)amino]thiophene-2-carboxamide], the IC50 in assay [1] was greater than 10 µM; in assay [2], greater than 10 µM; in assay [3], greater than 10 µM; in assay [4], greater than 10 µM; in assay [5] it was greater than 10 µM; in assay [6] it was less than 0.1 µM. For the same compound, the IC50 in assay [7] is greater than 10 µM.

With `COc1cc2ncn(-c3cc(OCc4ccc(C(N)=O)cc4)c(C(N)=O)s3)c2cc1OC` [Example 104, 3-{[4-(Aminocarbonyl)benzyl]oxy}-5-(5,6-dimethoxy-1H-benzimidazol-1-yl)thiophene-2-carboxamide], the IC50 in assay [1] is 1 to 10 µM; in assay [2] it was 1 to 10 µM; in assay [3], greater than 10 µM; in assay [4], 1 to 10 µM; in assay [5] it was 1 to 10 µM; in assay [6] it was less than 0.1 µM. Besides, in assay [7], the IC50 is greater than 10 µM.

For `NC(=O)c1sc(-n2cnc3ccccc32)cc1NCc1ccccc1C(F)(F)F` [Example 133, 5-(1H-Benzimidazol-1-yl)-3-{[2-(trifluoromethyl)benzyl]amino}-thiophene-2-carboxamide], the IC50 is greater than 10 µM in assay [1]; greater than 10 µM in assay [2]; greater than 10 µM in assay [3]; 1 to 10 µM in assay [4]; 1 to 10 µM in assay [5]; 0.1 to 10 µM in assay [6]. Further, in assay [7], the IC50 is greater than 10 µM.

For `NC(=O)c1sc(-n2cnc3cc4c(cc32)OCCCO4)cc1OCc1ccccc1C(F)(F)F` [Example 89], the IC50 in assay [1] is 1 to 10 µM; in assay [2] it was 1 to 10 µM; in assay [3], greater than 10 µM; in assay [4] it was 1 to 10 µM; in assay [5], 1 to 10 µM; in assay [6] it was less than 0.1 µM. The IC50 in assay [7] is greater than 10 µM.

`NC(=O)c1ccc2c(c1)ncn2-c1cc(OCc2ccccc2C(F)(F)F)c(C(N)=O)s1` [Example 125, 1-[5-(Aminocarbonyl)-4-({[2-(trifluoromethyl)phenyl]methyl}oxy)-2-thienyl]-1H-benzimidazole-5-carboxamide]: the IC50 in assay [1] is 1 to 10 µM; in assay [2] it was 1 to 10 µM; in assay [3], greater than 10 µM; in assay [4] it was 1 to 10 µM; in assay [5], 1 to 10 µM; in assay [6], less than 0.1 µM. In addition, the IC50 in assay [7] is greater than 10 µM.

Consider `CC(=O)c1sc(-n2cnc3ccc(Cl)cc32)cc1OCc1ccccc1C` [Example 39, 1-{5-(6-Chloro-1H-benzimidazol-1-yl)-3-[(2-methylbenzyl)oxy]thien-2-yl}ethanone], for which the IC50 was greater than 10 µM in assay [1]; greater than 10 µM in assay [2]; greater than 10 µM in assay [3]; greater than 10 µM in assay [4]; greater than 10 µM in assay [5]; 0.1 to 10 µM in assay [6]. In assay [7], the IC50 was greater than 10 µM.

Consider `COc1cc2ncn(-c3cc(OCc4ccccc4C(C)=O)c(C(N)=O)s3)c2cc1OC` [Example 105, 3-[(2-Acetylbenzyl)oxy]-5-(5,6-dimethoxy-1H-benzimidazol-1-yl)thiophene-2-carboxamide], for which the IC50 in assay [1] is 1 to 10 µM; in assay [2], 1 to 10 µM; in assay [3] it was greater than 10 µM; in assay [4] it was 1 to 10 µM; in assay [5], 1 to 10 µM; in assay [6], less than 0.1 µM. In addition, the IC50 in assay [7] was greater than 10 µM.

With `COc1cc2ncn(-c3cc(OCc4ccccc4-c4ccccc4)c(C(N)=O)s3)c2cc1OC` [Example 93, 3-(1,1′-Biphenyl-2-ylmethoxy)-5-(5,6-dimethoxy-1H-benzimidazol-1-yl)thiophene-2-carboxamide], the IC50 in assay [1] is greater than 10 µM; in assay [2], greater than 10 µM; in assay [3] it was greater than 10 µM; in assay [4], greater than 10 µM; in assay [5], greater than 10 µM; in assay [6] it was 0.1 to 10 µM. In addition, the IC50 in assay [7] is greater than 10 µM.

`COc1cc2ncn(-c3cc(OCc4ccccc4C(F)(F)F)c(C(N)=O)s3)c2cc1OCCCN(C)C` [Example 135, 5-[6-{[3-(Dimethylamino)propyl]oxy}-5-(methyloxy)-1H-benzimidazol-1-yl]-3-({[2-(trifluoromethyl)phenyl]methyl}oxy)-2-thiophenecarboxamide]: the IC50 was less than 1 µM in assay [1]; less than 1 µM in assay [2]; 1 to 10 µM in assay [3]; less than 1 µM in assay [4]; less than 1 µM in assay [5]; less than 0.1 µM in assay [6]. Moreover, in assay [7], the IC50 lay in the range of 1 to 10 µM.

On to `COc1cc2ncn(-c3cc(OCCN4CCOCC4)c(C(N)=O)s3)c2cc1OC` [Example 113, 5-(5,6-Dimethoxy-1H-benzimidazol-1-yl)-3-(2-morpholin-4-ylethoxy)thiophene-2-carboxamide], for which the IC50 in assay [1] was greater than 10 µM; in assay [2], greater than 10 µM; in assay [3], greater than 10 µM; in assay [4], greater than 10 µM; in assay [5], greater than 10 µM; in assay [6] it was 0.1 to 10 µM. For the same compound, the IC50 in assay [7] was greater than 10 µM.

In the case of `Cc1ccccc1COc1cc(-n2cnc3cc(Cl)ccc32)sc1C(=O)O` [Example 34, 5-(5-Chloro-1H-benzimidazol-1-yl)-3-[(2-methylbenzyl)oxy]thiophene-2-carboxylic acid], the IC50 in assay [1] is greater than 10 µM; in assay [2] it was greater than 10 µM; in assay [3], greater than 10 µM; in assay [4], greater than 10 µM; in assay [5] it was greater than 10 µM; in assay [6] it was less than 0.1 µM. In assay [7], the IC50 was greater than 10 µM.

With `CS(=O)(=O)N1CCC(COc2cc(-n3cnc4cc5c(cc43)OCCO5)sc2C(N)=O)CC1` [Example 124, 5-(6,7-Dihydro-1H-[1,4]dioxino[2,3-f]benzimidazol-1-yl)-3-{[1-(methylsulfonyl)-piperidin-4-yl]methoxy}thiophene-2-carboxamide], the IC50 is greater than 10 µM in assay [1]; greater than 10 µM in assay [2]; greater than 10 µM in assay [3]; greater than 10 µM in assay [4]; greater than 10 µM in assay [5]; 0.1 to 10 µM in assay [6]. Further, the IC50 in assay [7] is greater than 10 µM.
